Earlier results in US5198463A, “Oxytocin antagonists” (Merck & Co., Inc., priority 1992, dated 1993).

System: Chinese cabbage seedlings
Settings: reported by T. Sassa et al.

## COc1c(C(O)CC(C)C)ccc2c1C(=O)OCc1cc(C)cc(O)c1O2 (stereo not shown) [Compound IA, penicillide]
  growth of Chinese cabbage seedlings: markedly inhibits the growth
